Test results reported in PubChem BioAssay AID330 (DTP/NCI, 2004).
Where “and” joins values, the source holds several entries; their conditions need not be identical. Equal entries are not always repeated. Inconclusive results and toxic doses are left out. The calls were made as follows: active = survival T/C of 150% or more; inactive = T/C below 125% in these data.

Test system: P388 leukemia ip, CD2F1 mice, survival T/C
Assay: NCI In Vivo Anticancer Drug Screen. Data for tumor model P388 Leukemia (intraperitoneal) in CD2F1 (CDF1) mice
Conditions: endpoint: median survival time, higher = longer survival
Outline: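 Mice carrying the transplanted tumor received test compound or vehicle. Survival was recorded in each group, and the value is the treated-group measurement divided by that of the vehicle-treated control group.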

[1] = dose: 60.0 mg/kg/injection, schedule: Q01DX005 (ip), vehicle: Klucel (hydroxypropylcellulose) (HPC)
[2] = dose: 120.0 mg/kg/injection, schedule: Q01DX005 (ip), vehicle: Klucel (hydroxypropylcellulose) (HPC)
[3] = dose: 240.0 mg/kg/injection, schedule: Q01DX005 (ip), vehicle: Klucel (hydroxypropylcellulose) (HPC)
[4] = dose: 50.0 mg/kg/injection, schedule: Q01DX005 (ip), vehicle: Klucel (hydroxypropylcellulose) (HPC)
[5] = dose: 100.0 mg/kg/injection, schedule: Q01DX005 (ip), vehicle: Klucel (hydroxypropylcellulose) (HPC)
[6] = dose: 200.0 mg/kg/injection, schedule: Q01DX005 (ip), vehicle: Klucel (hydroxypropylcellulose) (HPC)
[7] = dose: 60.0 mg/kg/injection, schedule: Q01DX005 (ip), vehicle: saline with Tween-80
[8] = dose: 120.0 mg/kg/injection, schedule: Q01DX005 (ip), vehicle: saline with Tween-80
[9] = dose: 240.0 mg/kg/injection, schedule: Q01DX005 (ip), vehicle: saline with Tween-80
[10] = dose: 50.0 mg/kg/injection, schedule: Q01DX009 (ip), vehicle: saline
[11] = dose: 100.0 mg/kg/injection, schedule: Q01DX009 (ip), vehicle: saline
[12] = dose: 25.0 mg/kg/injection, schedule: Q01DX009 (ip), vehicle: Klucel (hydroxypropylcellulose) (HPC)
[13] = dose: 50.0 mg/kg/injection, schedule: Q01DX009 (ip), vehicle: Klucel (hydroxypropylcellulose) (HPC)
[14] = dose: 100.0 mg/kg/injection, schedule: Q01DX009 (ip), vehicle: Klucel (hydroxypropylcellulose) (HPC)
[15] = dose: 50.0 mg/kg/injection, schedule: Q01DX009 (ip), vehicle: saline with Tween-80
[16] = dose: 100.0 mg/kg/injection, schedule: Q01DX009 (ip), vehicle: saline with Tween-80
[17] = dose: 200.0 mg/kg/injection, schedule: Q01DX009 (ip), vehicle: saline with Tween-80
[18] = dose: 25.0 mg/kg/injection, schedule: Q01DX009 (ip), vehicle: saline

Measured: T/C

N#CC(C#N)=C1Cc2ccccc2C1
inactive: dose: 25.0 mg/kg/injection, schedule: Q01DX001 (ip), vehicle: saline with Tween-80 109 % of control | dose: 50.0 mg/kg/injection, schedule: Q01DX001 (ip), vehicle: saline with Tween-80 100 % of control

O=C(CO)C1CC2CCC1C2 (stereo not given)
inactive: [1] 101 % of control | [2] 101 % of control | [3] 99 % of control

OCc1c(-c2ccc(Cl)cc2)c(-c2ccc(F)cc2)c2n1CCC2
inactive: [4] 98 % of control | [5] 100 % of control | [6] 103 % of control

CC(=O)O[C@@H]1CCC2CCC1N2C (stereo not given in full)
inactive: dose: 50.0 mg/kg/injection, schedule: Q01DX005 (ip), vehicle: saline 97 % of control | dose: 100.0 mg/kg/injection, schedule: Q01DX005 (ip), vehicle: saline 95 % of control | dose: 200.0 mg/kg/injection, schedule: Q01DX005 (ip), vehicle: saline 95 % of control

O=C1C2(Cl)C3CCC4C5CCC3C1(Cl)C5(Cl)C42Cl (stereo not given)
inactive: dose: 100.0 mg/kg/injection, schedule: Q04DX002 (ip), vehicle: saline with Tween-80 107 % of control | dose: 200.0 mg/kg/injection, schedule: Q04DX002 (ip), vehicle: saline with Tween-80 100 % of control

O=C1C=CC2C=CC1C=C2
inactive: dose: 25.0 mg/kg/injection, schedule: Q01DX005 (ip), vehicle: saline with Tween-80 116 % of control | dose: 50.0 mg/kg/injection, schedule: Q01DX005 (ip), vehicle: saline with Tween-80 104 % of control | [7] 118 % of control | dose: 100.0 mg/kg/injection, schedule: Q01DX005 (ip), vehicle: saline with Tween-80 122 % of control

Nc1nc(SCC(=O)O)[nH]c(=O)c1NS(=O)(=O)c1ccccc1[N+](=O)[O-]
inactive: [1] 90 % of control | [2] 91 % of control | [3] 96 % of control

C=C1C(=O)OC2C(O)CCCC12 (stereo not given)
inactive: dose: 50.0 mg/kg/injection, schedule: Q04DX003 (ip), vehicle: Klucel (hydroxypropylcellulose) (HPC) 105 % of control and 110 % of control | dose: 100.0 mg/kg/injection, schedule: Q04DX003 (ip), vehicle: Klucel (hydroxypropylcellulose) (HPC) 98 % of control and 103 % of control | dose: 200.0 mg/kg/injection, schedule: Q04DX003 (ip), vehicle: Klucel (hydroxypropylcellulose) (HPC) 110 % of control

Cc1ccc(C(=Nc2ccccc2Cl)N(O)c2ccccc2)cc1
inactive: [4] 107 % of control | [5] 102 % of control | [6] 95 % of control

OC(C1=NNC(C(O)c2ccccc2)=NN1)c1ccccc1 (stereo not given)
inactive: [7] 92 % of control | [8] 100 % of control | [9] 102 % of control

Cc1cc(C)n(-c2cc(N3CCN(C)CC3)ncn2)n1
inactive: [10] 98 % of control | [11] 98 % of control | dose: 200.0 mg/kg/injection, schedule: Q01DX009 (ip), vehicle: saline 98 % of control

CC(=O)C(Cl)c1ccccc1Cl (stereo not given)
inactive: [12] 111 % of control | [13] 107 % of control and 113 % of control | [14] 109 % of control

O=c1ccc2c(O)c3ccoc3cc2o1
inactive: dose: 100.0 mg/kg/injection, schedule: Q01DX001 (ip), vehicle: Klucel (hydroxypropylcellulose) (HPC) 101 % of control | dose: 200.0 mg/kg/injection, schedule: Q01DX001 (ip), vehicle: Klucel (hydroxypropylcellulose) (HPC) 111 % of control | dose: 400.0 mg/kg/injection, schedule: Q01DX001 (ip), vehicle: Klucel (hydroxypropylcellulose) (HPC) 106 % of control

COc1cc2c(c(OC)c1OC)-c1ccc(=O)c(OC)cc1C=CC2
inactive: dose: 2.5 mg/kg/injection, schedule: Q01DX009 (ip), vehicle: Klucel (hydroxypropylcellulose) (HPC) 100 % of control | dose: 5.0 mg/kg/injection, schedule: Q01DX009 (ip), vehicle: Klucel (hydroxypropylcellulose) (HPC) 106 % of control | dose: 10.0 mg/kg/injection, schedule: Q01DX009 (ip), vehicle: Klucel (hydroxypropylcellulose) (HPC) 104 % of control and 108 % of control | dose: 20.0 mg/kg/injection, schedule: Q01DX009 (ip), vehicle: Klucel (hydroxypropylcellulose) (HPC) 103 % of control and 109 % of control | dose: 40.0 mg/kg/injection, schedule: Q01DX009 (ip), vehicle: Klucel (hydroxypropylcellulose) (HPC) 106 % of control and 123 % of control | dose: 80.0 mg/kg/injection, schedule: Q01DX009 (ip), vehicle: Klucel (hydroxypropylcellulose) (HPC) 115 % of control

N[C@@H](C[C@H]1CCC(=O)[C@@H]2O[C@H]12)C(=O)O
inactive: dose: 100.0 mg/kg/injection, schedule: Q04DX002 (ip), vehicle: saline 100 % of control | dose: 200.0 mg/kg/injection, schedule: Q04DX002 (ip), vehicle: saline 98 % of control | dose: 400.0 mg/kg/injection, schedule: Q04DX002 (ip), vehicle: saline 108 % of control | dose: 600.0 mg/kg/injection, schedule: Q04DX002 (ip), vehicle: saline 112 % of control

O=C(N1CCN(C(=O)S(=O)(=O)c2ccc(F)cc2)CC1)S(=O)(=O)c1ccc(F)cc1
inactive: [4] 99 % of control | [5] 98 % of control | [6] 100 % of control

Oc1c(Cl)cc(Cl)cc1C1CC(c2ccccc2Cl)=NN1c1ccccc1 (stereo not given)
inactive: [15] 96 % of control | [16] 95 % of control | [17] 97 % of control

CCOC(=O)N1CCc2cc(OC)c(OC)cc2/C1=C/c1cc(OC)c(OC)cc1Br
inactive: dose: 12.5 mg/kg/injection, schedule: Q01DX009 (ip), vehicle: other 94 % of control | dose: 25.0 mg/kg/injection, schedule: Q01DX009 (ip), vehicle: other 96 % of control | dose: 50.0 mg/kg/injection, schedule: Q01DX009 (ip), vehicle: other 96 % of control | dose: 100.0 mg/kg/injection, schedule: Q01DX009 (ip), vehicle: other 93 % of control | dose: 200.0 mg/kg/injection, schedule: Q01DX009 (ip), vehicle: other 93 % of control

COc1ccc(/C=N/NC(=O)C(O)c2ccccc2)cc1 (stereo not given)
inactive: [7] 99 % of control | [8] 90 % of control | [9] 91 % of control

CNC(=O)OCc1nc(-c2ccccc2)sc1COC(=O)NC
inactive: dose: 12.5 mg/kg/injection, schedule: Q01DX005 (ip), vehicle: distilled water + Tween-80 94 % of control | dose: 25.0 mg/kg/injection, schedule: Q01DX005 (ip), vehicle: distilled water + Tween-80 93 % of control

CC(C)N=C(Nc1ccccc1)c1ccccc1
inactive: dose: 12.5 mg/kg/injection, schedule: Q01DX009 (ip), vehicle: saline with Tween-80 93 % of control | dose: 25.0 mg/kg/injection, schedule: Q01DX009 (ip), vehicle: saline with Tween-80 89 % of control | dose: 50.0 mg/kg/injection, schedule: Q01DX009 (ip), vehicle: saline + Tween-80 + alcohol 88 % of control

OCCCN1CNC(=S)NC1
inactive: dose: 12.5 mg/kg/injection, schedule: Q01DX009 (ip), vehicle: saline 106 % of control and 111 % of control | [18] 100 % of control and 105 % of control | [10] 100 % of control and 97 % of control | [11] 99 % of control and 102 % of control

CC(C)(C)c1cc(I)c(O)c(CN)c1
inactive: [18] 123 % of control

COP(=O)(OC)C1(Nc2ccccc2)C2CC3CC(C2)CC1C3 (stereo not given)
inactive: dose: 100.0 mg/kg/injection, schedule: Q01DX001 (ip), vehicle: saline with Tween-80 105 % of control | dose: 200.0 mg/kg/injection, schedule: Q01DX001 (ip), vehicle: saline with Tween-80 110 % of control | dose: 400.0 mg/kg/injection, schedule: Q01DX001 (ip), vehicle: saline with Tween-80 102 % of control

O=C1CC(=O)N2C=CC=CC2N1 (stereo not given)
inactive: [12] 106 % of control | [13] 106 % of control | [14] 97 % of control | dose: 200.0 mg/kg/injection, schedule: Q01DX009 (ip), vehicle: Klucel (hydroxypropylcellulose) (HPC) 97 % of control

OCC1OC(O)C(N=Cc2ccccc2O)C(O)C1O (stereo not given)
inactive: [4] 104 % of control | [5] 104 % of control | [6] 106 % of control

CCOC(=O)c1cc([N+](=O)[O-])c(C)n1C
inactive: [15] 98 % of control | [16] 102 % of control | [17] 96 % of control
